Source: patent publication EP0332295A2, “Novel imidazole derivative” (priority 1988, dated 1989)

test system: mice; assay: Anti-hypoxia action (hypobaric hypoxia, existence time at 180 mmHg, life prolongation ratio); assay type: in vivo; settings: Mus musculus, ip; male ddy mice, administered in the abdominal cavity at 25 mg/kg, 30 minutes before pressure reduction to 180 mmHg; ratio of existence time to saline control (cut-off 15 minutes)
Method: With respect to each of the above-mentioned compounds (compounds Nos. 1 through 54), the anti-hypoxia action was tested according to the following method and was evaluated by the life prolongation ratio.
Male mice if the ddy-line, which were 5 to 8 weeks old, were used as test animals, and they were divided into groups, each consisting of 7 to 10 mice. The compound to be tested was dissolved in a physiological saline solution. If the compound to be tested was insoluble, the compound was suspended in 1% gum arabic. The solution or suspension was administered in the abdominal cavity at a does of 25 mg/kg and when 30 minutes had passed from the point of the administration, the mice were independently placed one by one into a desiccator (capacity = 1 liter) and the pressure in the desiccator was reduced to 180 mmHg by a vacuum pump.
The period of from the point of initiation of the reduction of the pressure to the point of the stop of breathing was regarded as the existence time. When the mouse lived for more than 15 minutes, the calculation was done while regarding the existence time as being 15 minutes.
The significant difference test of the existence time was carried out according to the student t-test method using controls to which a physiological saline solution alone had been administered. The ratio of the existence time of the sample-administered group to the existence time of the physiological saline solution-administered control group was calculated as the life prolongation ratio.

Row | Structure (SMILES) | response vs control in vivo at 25 mg/kg [%]
1 | CN(C)C(=O)n1cnc(Cc2ccccc2)c1 [compound 1, 4-benzyl-1-(N,N-dimethylcarbamoyl)imidazole] | 85
2 | Cc1cccc(C)c1Cc1cn(C(=O)N(C)C)cn1 [compound 2] | 305
3 | Cc1cc(C)c(Cc2cn(C(=O)N(C)C)cn2)c(C)c1 [compound 4] | 184
4 | Cc1cccc(C)c1Cc1cn(C(=O)N(C)C(C)C)cn1 [compound 9] | 466
5 | Cc1cccc(C)c1Cc1cn(C(=O)N(C)C2CCCCC2)cn1 [compound 10] | 253
6 | C=CCN(C)C(=O)n1cnc(Cc2c(C)cccc2C)c1 [compound 11] | 255
7 | CON(C)C(=O)n1cnc(Cc2c(C)cccc2C)c1 [compound 12] | 109
8 | CCN(CC)C(=O)n1cnc(Cc2c(C)cccc2C)c1 [compound 13] | 281
9 | Cc1cccc(C)c1Cc1cn(C(=O)N2CCCCC2)cn1 [compound 14] | 270
10 | Cc1cccc(C)c1Cc1cn(C(=O)N2CCOCC2)cn1 [compound 17] | 165
11 | CCOC(=O)n1cnc(Cc2c(C)cccc2C)c1 [compound 18] | 182
12 | Cc1cccc(C)c1Cc1cn(C(=S)N(C)C)cn1 [compound 20] | 243
13 | CN(C)C(=O)Sc1nc(-c2ccccc2)c[nH]1 [compound 21, 2-(N,N-dimethylcarbamoylthio)-4-phenylimidazole] | 283
14 | CN(C)C(=O)Sc1nc(-c2ccccc2)cn1C [compound 22] | 230
15 | CCn1cc(-c2ccccc2)nc1SC(=O)N(C)C [compound 23] | 264
16 | CCCn1cc(-c2ccccc2)nc1SC(=O)N(C)C [compound 24] | 163
17 | CC(C)n1cc(-c2ccccc2)nc1SC(=O)N(C)C [compound 25] | 119
18 | CN(C)C(=O)Sc1nc(-c2ccccc2)cn1C1CCCCC1 [compound 26] | 132

Row | Structure (SMILES) | response vs control in vivo at 25 mg/kg [%]
19 | CN(C)C(=O)Sc1nc(-c2ccccc2)cn1-c1ccccc1 [compound 27] | 146
20 | CN(C)C(=O)Sc1nc(-c2ccccc2)cn1-c1ccc([N+](=O)[O-])cn1 [compound 28, 2-(N,N-dimethylcarbamoylthio)-1-(5-nitropyridinyl)-4-phenylimidazole] | 102
21 | CN(C)C(=O)Sc1nc(-c2ccccc2)cn1-c1ncccc1[N+](=O)[O-] [compound 29] | 110
22 | CN(C)C(=O)Sc1nc(-c2ccccc2)cn1C(=O)N(C)C [compound 30, 1-(N,N-dimethylcarbamoyl)-2-(N,N-dimethylcarbamoylthio)-4-phenylimidazole] | 115
23 | CCOC(=O)n1cc(-c2ccccc2)nc1SC(=O)N(C)C [compound 31] | 123
24 | CC(=O)n1cc(-c2ccccc2)nc1SC(=O)N(C)C [compound 32] | 281
25 | CC(=O)n1cc(-c2ccccc2)nc1SC(=O)N(C)C(C)C [compound 33] | 127
26 | O=C(Sc1nc(-c2ccccc2)cn1C(=O)N1CCCCC1)N1CCCCC1 [compound 38] | 113
27 | Cc1[nH]c(SC(=O)N(C)C)nc1-c1ccccc1 [compound 42] | 192
28 | CCc1[nH]c(SC(=O)N(C)C)nc1-c1ccccc1 [compound 43] | 121
29 | CCOC(=O)c1[nH]c(SC(=O)N(C)C)nc1-c1ccccc1 [compound 44] | 143
30 | Cc1ccccc1-c1c[nH]c(SC(=O)N(C)C)n1 [compound 45] | 192
31 | COc1ccc(-c2c[nH]c(SC(=O)N(C)C)n2)cc1 [compound 47] | 165
32 | CN(C)C(=O)Sc1nc(-c2ccc(-c3ccccc3)cc2)c[nH]1 [compound 49] | 127
33 | CN(C)C(=O)Sc1nccn1-c1ccccc1 [compound 50] | 127
34 | Cn1c(=O)sc2nc(-c3ccccc3)cn2c1=O [compound 53, 3-methyl-7-phenyl-1,3,5-thiadiazino[3,2-a]imidazole-2,4(3H)-dione] | 145
35 | CCn1c(=O)sc2nc(-c3ccccc3)cn2c1=O [compound 54] | 137

same assay, conditions: male ddy mice, administered in the abdominal cavity at 25 mg/kg, 30 minutes before pressure reduction to 180 mmHg; ratio of existence time to saline control (cut-off 15 minutes)

Row | Structure (SMILES) | Life Prolongation Ratio
36 | CN(C)C(=O)n1cnc(C[n+]2ccccc2)c1 [compound 19] | 1.09

test system: mice; assay: as above; assay type: in vivo; settings: Mus musculus, ip; male ddy mice, administration dose = 12.5 mg/kg in the abdominal cavity, 30 minutes before pressure reduction to 180 mmHg; ratio of existence time to saline control

Row | Structure (SMILES) | response vs control in vivo at 12.5 mg/kg [%]
37 | CCN(CC)C(=O)Sc1nc(-c2ccccc2)c[nH]1 [compound 34] | 100
38 | CCCN(CCC)C(=O)Sc1nc(-c2ccccc2)c[nH]1 [compound 35] | 87
39 | O=C(Sc1nc(-c2ccccc2)c[nH]1)N1CCCC1 [compound 36] | 94
40 | O=C(Sc1nc(-c2ccccc2)c[nH]1)N1CCCCC1 [compound 37] | 85
41 | O=C(Sc1nc(-c2ccccc2)c[nH]1)N1CCOCC1 [compound 39] | 104
42 | O=C(Sc1nc(-c2ccccc2)c[nH]1)N1CCSCC1 [compound 40] | 93
43 | O=C(Sc1nc(-c2ccccc2)c[nH]1)N1CCCc2ccccc21 [compound 41] | 76
44 | Cc1ccc(-c2c[nH]c(SC(=O)N(C)C)n2)cc1 [compound 46] | 95
45 | CN(C)C(=O)Sc1nc(-c2ccc(Cl)cc2)c[nH]1 [compound 48] | 115

same assay, conditions: Mus musculus, ip; male ddy mice, administration dose = 50 mg/kg in the abdominal cavity, 30 minutes before pressure reduction to 180 mmHg; ratio of existence time to saline control

Row | Structure (SMILES) | response vs control in vivo at 50 mg/kg [%]
46 | CN(C)C(=O)Sc1nccn1-c1ccc([N+](=O)[O-])cn1 [compound 51] | 245
47 | CN(C)C(=O)Sc1nccn1-c1ncccc1[N+](=O)[O-] [compound 52] | 192
